Literature values, collected in patent US4032635A, “Pharmaceutical method for the therapy of immune diseases” (Zaidan Hojin Biseibutsu Kagaku Kenkyu Kai, priority 1975, dated 1977).

Tests used:
histidine decarboxylase = details: cited from earlier work
[1] = system: antibody formation, anaphylaxis or contact dermatitis; details: in vivo; cited from earlier work
[2] = system: experimental allergic encephalomyelitis (EAE); details: cited from earlier work; for EAE after discontinuation of the drug (known agents): after discontinuation and following a latent period; for suppression of development of EAE (known agents): at such high doses as would cause toxicity
[3] = system: nucleic acid and/or protein synthesis; details: cited from earlier work
[4] = system: autoimmune diseases, some infection allergies and dermatological contact allergies, transplantation immunological responses; details: in vivo; cited from earlier work
[5] = system: humoral and cell-mediated immunities; details: cited from earlier work
[6] = system: MS and related autoimmune diseases; details: long-term administration; cited from earlier work

| Molecule | inhibition of histidine decarboxylase (histidine decarboxylase) | inhibition of antibody formation, anaphylaxis or contact dermatitis [1] | EAE after discontinuation of the drug (known agents) [2] | suppression of development of EAE (known agents) [2] | effect on nucleic acid and/or protein synthesis [3] | effectiveness in therapy of autoimmune diseases, allergies, transplantation responses [4] | dose at which effective / cytotoxicity [5] | inhibition of humoral and cell-mediated immunities [5] | effects in patients with MS [6] |
| --- | --- | --- | --- | --- | --- | --- | --- | --- | --- |
| NNC(Cc1c[nH]cn1)C(=O)O (centres unmarked) [2-hydrazino-3-(4-imidazolyl)-propionic acid] | inhibitor of histidine decarboxylase | inhibits antibody formation, anaphylaxis or contact dermatitis | – | – | – | – | – | – | – |
| Sc1ncnc2nc[nH]c12 [6-mercaptopurine] | – | – | the animals often develop paralytic EAE | can suppress the development of EAE | disrupt nucleic acid and/or protein synthesis | effective in the therapy of autoimmune diseases, some infection allergies and dermatological contact allergies | effective in general only at near-lethal doses owing to their cytotoxicity | inhibit both humoral and cell-mediated immunities | – |
| O=P1(N(CCCl)CCCl)NCCCO1 (centres unmarked) [cyclophosphamide] | – | – | the animals often develop paralytic EAE | can suppress the development of EAE | disrupt nucleic acid and/or protein synthesis | effective in the therapy of autoimmune diseases, some infection allergies and dermatological contact allergies | effective in general only at near-lethal doses owing to their cytotoxicity | inhibit both humoral and cell-mediated immunities | – |
| CCOc1c(N)c2c(c(OCC)c1OCC)C(C1c3c(cc4c(c3OC)OCO4)CCN1C)OC2=O (centres unmarked) [tritoqualine] | inhibitor of histidine decarboxylase | inhibits antibody formation, anaphylaxis or contact dermatitis | – | – | – | – | – | – | – |
| ACTH: presently applied to patients with MS and related autoimmune diseases (SYSMEHFRWGKPVGKKRRPVKVYPNGAEDESAEAFPLEF; Corticotropin; UniProt P01189 138-176, looked up) | – | – | – | – | – | – | – | – | effects are limited due to serious side-effects caused by long-term administration of the drug |
